Where “and” joins values, the source holds several entries; their conditions need not be identical. Identical values can stand only once.
How the values were obtained:
[1] = Solubility studies of the activators (saturated solution in isohexane or methylcyclohexane); type: physicochemical; details: methylcyclohexane
[2] = as above; type: physicochemical; details: for Solubility limit in i-hexane (mM at 25° C.) / Solubility limit in i-hexane (wt % at 25° C.): isohexane; for Solubility limit in MeCy (mM at 25° C.): methylcyclohexane
Procedure: Solubility Studies of the Activators
Procedure for Solid Activators.
A saturated solution of each of the solid ammonium borate activators was prepared by stirring an excess of the activator with either isohexane or methylcyclohexane solvent for several hours at 25° C. The mixture was then filtered and a known volume of the filtrate was evaporated to dryness in a tared vial. The vial was then weighed to determine the mass of activator that was dissolved in the aliquot. The concentration of the saturated solution is presented in millimoles of activator per liter of solution (mM).
Procedure for Activators that Form Emulsions.
A saturated solution of the activator was prepared by slowly adding the solvent to a pre-weighed amount of the activator. The final volume was determined as the minimum amount of solvent required to convert the emulsion into a homogeneous solution. The concentration of the saturated solution is presented in millimoles of activator per liter of solution (mM). Alternatively, an emulsion of the activator was prepared by adding the solvent to an excess amount of activator. The resulting emulsion was separated from the undissolved solids by decanting the emulsion into a tared vial. Solvent was then added dropwise until the emulsion became homogeneous. The mass of the final solution was measured and then the solvent was evaporated to dryness to obtain the mass of the activator. The concentration of the saturated solution is presented in millimoles of activator per liter of solution (mM).

[3] = Propylene homopolymerization in parallel pressure reactor, MCN-1 with ammonium borate activators; details: propylene, MCN-1 = 20 nmol, activator = 20 nmol, isohexane, TNOAL 500 nmol
Description: Polymerization in Parallel Pressure Reactor
Solvents, polymerization-grade toluene, and isohexane were supplied by ExxonMobil Chemical Company and purified by passing through a series of columns: two 500 cc Oxyclear cylinders in series from Labclear (Oakland, Calif.), followed by two 500 cc columns in series packed with dried 3 Å mole sieves (8-12 mesh; Aldrich Chemical Company), and two 500 cc columns in series packed with dried 5 Å mole sieves (8-12 mesh; Aldrich Chemical Company). 1-octene (C8) and 1-hexene (C6) (98%, Aldrich Chemical Company) were dried by stirring over NaK overnight followed by filtration through basic alumina (Aldrich Chemical Company, Brockman Basic 1).
Solutions of the metal complexes and activators were prepared in a drybox using toluene or methylcyclohexane. Concentrations were typically 0.2 mmol/L. Tri-n-octylaluminum (TNOAL, neat, AkzoNobel) was typically used as a scavenger. Concentration of the TNOAL solution in toluene ranged from 0.5 to 2.0 mmol/L.
Polymerizations were carried out in a parallel pressure reactor, as generally described in U.S. Pat. Nos. 6,306,658; 6,455,316; 6,489,168; WO 00/09255; and Murphy, V. et al. (2003) “A Fully Integrated High-Throughput Screening Methodology for the Discovery of New Polyolefin Catalysts: Discovery of a New Class of High Temperature Single-Site Group (IV) Copolymerization Catalysts,” J. Am. Chem. Soc., v. 125, pp. 4306-4317, each of which is fully incorporated herein by reference. […] Although the specific quantities, temperatures, solvents, reactants, reactant ratios, pressures, and other variables are frequently changed from one polymerization run to the next, the following describes a typical polymerization performed in a parallel pressure reactor.
Catalyst systems dissolved in solution were used in the polymerization examples below, unless specified otherwise.
RUN A: Propylene Homopolymerization (PP).
The reactor was prepared as described above and purged with propylene. For the examples in Table 2, the catalyst and activator solutions were prepared in toluene. […] Isohexane was then injected into each vessel at room temperature followed by a predetermined amount of propylene gas. The reactor was heated to the set temperature while stirring at 800 rpm, and the scavenger, activator and catalyst solutions were injected sequentially to each vessel. The polymerization was allowed to proceed as described previously.
A series of propylene polymerizations were performed in parallel pressure reactors (PPRs) developed by Symyx Technologies, Inc. In these polymerizations, the metallocene rac-dimethylsilyl-bis(indenyl)hafnium dimethyl (MCN-1) was used along with several different ammonium borate activators. Polymerizations were performed at 85° C. and 100° C.
Propylene homopolymerization (PP).
A series of propylene polymerizations were performed in the parallel pressure reactor similar to the procedure described above. In these studies rac-dimethylsilyl-bis(indenyl)hafnium dimethyl (MCN-1) was used along with ammonium borate activators.

[4] = RUN B: ethylene-octene polymerization in parallel pressure reactor, activator diluent toluene or methylcyclohexane; details: ethylene-octene copolymerization; for activity, molecular weight and co-monomer incorporation with methyl cyclohexane versus toluene as activator diluent: FIGS. 2-4; for activity: Cat 1 (MCN-1)
Procedure: RUN B: Polymerization in Parallel Pressure Reactor.
A series of ethylene-octene polymerizations were performed in the parallel pressure reactor according to the procedure described above. […] In a typical experiment an automated syringe was used to introduce into the reactor the following reagents, if utilized, in the following order: isohexane (0.35 mL), an isohexane solution of TNOAL scavenger (0.005 M, 60 μL), additional isohexane (0.35 mL), a toluene solution of the respective polymerization catalyst (150 μL, 0.4 mM, 20 nm [cat]/100 μL [toluene]), additional isohexane (0.35 mL), a toluene or methylcyclohexane solution of the respective activator (150 μL, 0.4 mM, (20 nm [act]/100 μL[ diluent])), then additional isohexane so that the total solvent volume for each run was 5 mL. Catalyst and activator were used in a 1:1 ratio. Each reaction was performed at a specified temperature range between 50 and 120° C., typically 95° C., while applying about 100 psig of ethylene (monomer) gas. Each reaction was allowed to run for about 1 hour (˜3600 seconds) or until approximately 20 psig of ethylene gas uptake was observed, at which point the reactions were quenched with air (˜300 psig). When sufficient polymer yield was attained (e.g., at least ˜10 mg), the polyethylene product was analyzed by Rapid GPC, described below.
In a typical experiment, the anilinium borate activators were combined with toluene or methylcyclohexane as diluent and introduced to the parallel, pressure reactor via syringe. By this mechanism of activator introduction, only well dissolved activators could be delivered to the reactor providing a means to discriminate between the polymerization performance of long chain soluble anilinium borates vs. conventional anilinium borates. Following addition of activator, the catalyst Cat 1 was introduced, via syringe as well-dissolved toluene solution and the polymerization was conducted per the methodology described above.

[5] = activator diluent MeCy (methylcyclohexane)

Compound: CCCCCCCCCC[NH+](CCCCCCCCCC)c1ccc(CCCC)cc1.Fc1c(F)c(F)c([B-](c2c(F)c(F)c(F)c(F)c2F)(c2c(F)c(F)c(F)c(F)c2F)c2c(F)c(F)c(F)c(F)c2F)c(F)c1F [DDBAH-BF20, 4-butyl-N,N-didecylbenzenaminium-BF20]
- Solubility limit in MeCy (wt % at 25° C.) [1]: 3.0 wt %
- Solubility limit in i-hexane (mM at 25° C.) [2]: 2.0 mM
- Solubility limit in i-hexane (wt % at 25° C.) [2]: 0.32 wt %
- Solubility limit in MeCy (mM at 25° C.) [2]: 21 mM

Compound: CCCCCCCCCC[NH+](CCCCCCCCCC)c1ccc(CCCC)cc1.Fc1c(F)c(F)c2c(F)c([B-](c3c(F)c(F)c4c(F)c(F)c(F)c(F)c4c3F)(c3c(F)c(F)c4c(F)c(F)c(F)c(F)c4c3F)c3c(F)c(F)c4c(F)c(F)c(F)c(F)c4c3F)c(F)c(F)c2c1F [DDBAH-BF28, 4-butyl-N,N-didecylbenzenaminium-BF28]
- Solubility limit in MeCy (wt % at 25° C.) [1]: 3.3 wt %
- Solubility limit in i-hexane (mM at 25° C.) [2]: 2.2 mM
- Solubility limit in i-hexane (wt % at 25° C.) [2]: 0.47 wt %
- Solubility limit in MeCy (mM at 25° C.) [2]: 17 mM

Compound: CCCCCCCCCC[NH+](CCCCCCCCCC)c1ccc(C)cc1.Fc1c(F)c(F)c([B-](c2c(F)c(F)c(F)c(F)c2F)(c2c(F)c(F)c(F)c(F)c2F)c2c(F)c(F)c(F)c(F)c2F)c(F)c1F [DDTH-BF20, N,N-didecyl-4-methylanilinium-BF20]
- Solubility limit in MeCy (wt % at 25° C.) [1]: 0.21 wt %
- Solubility limit in i-hexane (mM at 25° C.) [2]: 1.5 mM
- Solubility limit in i-hexane (wt % at 25° C.) [2]: 0.22 wt %
- Solubility limit in MeCy (mM at 25° C.) [2]: 1.7 mM

Compound: CCCCCCCCCC[NH+](CCCCCCCCCC)c1ccc(C)cc1.Fc1c(F)c(F)c2c(F)c([B-](c3c(F)c(F)c4c(F)c(F)c(F)c(F)c4c3F)(c3c(F)c(F)c4c(F)c(F)c(F)c(F)c4c3F)c3c(F)c(F)c4c(F)c(F)c(F)c(F)c4c3F)c(F)c(F)c2c1F [DDTH-BF28, N,N-didecyl-4-methylanilinium-BF28]
- Solubility limit in MeCy (wt % at 25° C.) [1]: 0.63 wt %
- Solubility limit in i-hexane (mM at 25° C.) [2]: 1.8 mM
- Solubility limit in i-hexane (wt % at 25° C.) [2]: 0.35 wt %
- Solubility limit in MeCy (mM at 25° C.) [2]: 3.7 mM

Compound: CCCCCCCCCCCCCCCCCC[NH+](CCCCCCCCCCCCCCCCCC)c1c(C)cc(C)cc1C.Fc1c(F)c(F)c2c(F)c([B-](c3c(F)c(F)c4c(F)c(F)c(F)c(F)c4c3F)(c3c(F)c(F)c4c(F)c(F)c(F)c(F)c4c3F)c3c(F)c(F)c4c(F)c(F)c(F)c(F)c4c3F)c(F)c(F)c2c1F [DOdMH-BF28, 2,4,6-trimethyl-N,N-dioctadecylbenzenaminium-BF28]
- Solubility limit in MeCy (wt % at 25° C.) [1]: >42 wt %
- Solubility limit in i-hexane (mM at 25° C.) [2]: 7.6 mM
- Solubility limit in i-hexane (wt % at 25° C.) [2]: 0.70 wt %
- Solubility limit in MeCy (mM at 25° C.) [2]: >180 mM

Compound: CCCCCCCCCCCCCCCCCC[NH+](CCCCCCCCCCCCCCCCCC)c1ccccc1C(C)C.Fc1c(F)c(F)c2c(F)c([B-](c3c(F)c(F)c4c(F)c(F)c(F)c(F)c4c3F)(c3c(F)c(F)c4c(F)c(F)c(F)c(F)c4c3F)c3c(F)c(F)c4c(F)c(F)c(F)c(F)c4c3F)c(F)c(F)c2c1F [DOdPAH-BF28, 2-isopropyl-N,N-dioctadecylbenzenaminium-BF28]
- Solubility limit in MeCy (wt % at 25° C.) [1]: >40 wt %
- Solubility limit in i-hexane (mM at 25° C.) [2]: 2.9 mM
- Solubility limit in i-hexane (wt % at 25° C.) [2]: 1.9 wt %
- Solubility limit in MeCy (mM at 25° C.) [2]: > 200 mM

Compound: CCCCCCc1ccc([NH+](C)C)cc1.Fc1c(F)c(F)c([B-](c2c(F)c(F)c(F)c(F)c2F)(c2c(F)c(F)c(F)c(F)c2F)c2c(F)c(F)c(F)c(F)c2F)c(F)c1F [Hex-DMAH-BF20, 4-hexyl-N,N-dimethylanilinium-BF20]
- activity ([3]; 85 °C, 135 psi): 150 kg/mmol/h and 163 kg/mmol/h and 192 kg/mmol/h
- activity ([3]; 100 °C, 150 psi): 47 kg/mmol/h and 81 kg/mmol/h and 75 kg/mmol/h

Compound: CCCCCCCCCCCCCCCCCC[NH+](C)c1ccc(CCCC)cc1.Fc1c(F)c(F)c2c(F)c([B-](c3c(F)c(F)c4c(F)c(F)c(F)c(F)c4c3F)(c3c(F)c(F)c4c(F)c(F)c(F)c(F)c4c3F)c3c(F)c(F)c4c(F)c(F)c(F)c(F)c4c3F)c(F)c(F)c2c1F [LCSA 1]
- activity, molecular weight and co-monomer incorporation with methyl cyclohexane versus toluene as activator diluent ([4]; Cat 1): remain approximately the same
- activity [4, 5]: 332.7 kg/mmol/h and 377.7 kg/mmol/h and 393.6 kg/mmol/h and 367.2 kg/mmol/h
- activity ([4]; activator diluent Toluene): 413.4 kg/mmol/h and 510.6 kg/mmol/h and 426.4 kg/mmol/h and 452.7 kg/mmol/h

Compound: CCCCCCCCCCCCCCCCCCc1ccc([NH+](C)CCCCCCCCCCCCCCCCCC)cc1.Fc1c(F)c(F)c2c(F)c([B-](c3c(F)c(F)c4c(F)c(F)c(F)c(F)c4c3F)(c3c(F)c(F)c4c(F)c(F)c(F)c(F)c4c3F)c3c(F)c(F)c4c(F)c(F)c(F)c(F)c4c3F)c(F)c(F)c2c1F [LCSA 2]
- activity, molecular weight and co-monomer incorporation with methyl cyclohexane versus toluene as activator diluent ([4]; Cat 1): remain approximately the same
- activity [4, 5]: 451.4 kg/mmol/h and 388.5 kg/mmol/h and 412.4 kg/mmol/h and 455.5 kg/mmol/h
- activity ([4]; activator diluent Toluene): 477.7 kg/mmol/h and 430.3 kg/mmol/h and 405.6 kg/mmol/h and 423.2 kg/mmol/h

Compound: CCCCCCCCCCCCCCCCCCc1ccc([NH+](CCCCCCCCCCCCCCCCCC)CCCCCCCCCCCCCCCCCC)cc1.Fc1c(F)c(F)c2c(F)c([B-](c3c(F)c(F)c4c(F)c(F)c(F)c(F)c4c3F)(c3c(F)c(F)c4c(F)c(F)c(F)c(F)c4c3F)c3c(F)c(F)c4c(F)c(F)c(F)c(F)c4c3F)c(F)c(F)c2c1F [LCSA 3]
- activity, molecular weight and co-monomer incorporation with methyl cyclohexane versus toluene as activator diluent ([4]; Cat 1): remain approximately the same
- activity [4, 5]: 280.6 kg/mmol/h and 257.6 kg/mmol/h and 334.9 kg/mmol/h and 360.9 kg/mmol/h
- activity ([4]; activator diluent Toluene): 290.6 kg/mmol/h and 278.0 kg/mmol/h and 289.7 kg/mmol/h and 278.3 kg/mmol/h

Compound: N,N-dimethyl anilinium tetrakis(perfluorobiphenyl) [C3, reference compound]
- quantity of polymer obtained with methylcyclohexane as diluent ([4]; Cat 1, activator in methylcyclohexane): insufficient for analysis
- activity ([4]; activator diluent Toluene): 692.3 kg/mmol/h and 711.1 kg/mmol/h and 841.8 kg/mmol/h and 803.7 kg/mmol/h

From patent US11414436B2, “Non-coordinating anion type activators containing cation having large alkyl groups” (ExxonMobil Chemical Patents Inc., priority 2018, dated 2022)
